Measurements as given in PubChem BioAssay AID248 (DTP/NCI, 2004).
Values joined by “and” are separate entries in the source; they are usually repeats but may differ in a detail not shown here. Equal entries are not always repeated. Inconclusive results and toxic doses are left out. No stated cut-off is given here; in the data, active means T/C of 150% or more; inactive means T/C below 125%.

Tested on: L1210 leukemia ip in BDF1 mice, survival T/C
Assay: NCI In Vivo Anticancer Drug Screen. Data for tumor model L1210 Leukemia (intraperitoneal) in B6D2F1 (BDF1) mice
Details: endpoint: mean survival time, higher = longer survival
In short: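 Tumor cells were implanted, animals were treated, and survival was followed. The result divides the treated measurement by the vehicle-control measurement.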

[1] = dose: 50.0 mg/kg/injection, schedule: Q01DX001 (ip), vehicle: carboxymethylcellulose (CMC)
[2] = dose: 100.0 mg/kg/injection, schedule: Q01DX001 (ip), vehicle: carboxymethylcellulose (CMC)
[3] = dose: 200.0 mg/kg/injection, schedule: Q01DX001 (ip), vehicle: carboxymethylcellulose (CMC)
[4] = dose: 400.0 mg/kg/injection, schedule: Q01DX001 (ip), vehicle: carboxymethylcellulose (CMC)
[5] = dose: 100.0 mg/kg/injection, schedule: Q04DX003 (ip), vehicle: saline
[6] = dose: 200.0 mg/kg/injection, schedule: Q04DX003 (ip), vehicle: saline
[7] = dose: 400.0 mg/kg/injection, schedule: Q04DX003 (ip), vehicle: saline
[8] = dose: 12.5 mg/kg/injection, schedule: Q01DX009 (ip), vehicle: saline
[9] = dose: 25.0 mg/kg/injection, schedule: Q01DX009 (ip), vehicle: saline
[10] = dose: 50.0 mg/kg/injection, schedule: Q01DX009 (ip), vehicle: saline
[11] = dose: 100.0 mg/kg/injection, schedule: Q04DX003 (ip), vehicle: saline with Tween-80
[12] = dose: 200.0 mg/kg/injection, schedule: Q04DX003 (ip), vehicle: saline with Tween-80
[13] = dose: 400.0 mg/kg/injection, schedule: Q04DX003 (ip), vehicle: saline with Tween-80
[14] = dose: 75.0 mg/kg/injection, schedule: Q01DX001 (ip), vehicle: other
[15] = dose: 100.0 mg/kg/injection, schedule: Q04DX003 (ip), vehicle: Klucel (hydroxypropylcellulose) (HPC)
[16] = dose: 100.0 mg/kg/injection, schedule: Q01DX009 (ip), vehicle: carboxymethylcellulose (CMC)
[17] = dose: 100.0 mg/kg/injection, schedule: Q04DX003 (ip), vehicle: carboxymethylcellulose (CMC)
[18] = dose: 200.0 mg/kg/injection, schedule: Q01DX009 (ip), vehicle: carboxymethylcellulose (CMC)
[19] = dose: 200.0 mg/kg/injection, schedule: Q04DX003 (ip), vehicle: carboxymethylcellulose (CMC)
[20] = dose: 400.0 mg/kg/injection, schedule: Q04DX003 (ip), vehicle: carboxymethylcellulose (CMC)
[21] = dose: 100.0 mg/kg/injection, schedule: Q01DX009 (ip), vehicle: Klucel (hydroxypropylcellulose) (HPC)
[22] = dose: 200.0 mg/kg/injection, schedule: Q01DX009 (ip), vehicle: Klucel (hydroxypropylcellulose) (HPC)

Measured: T/C

CCOP(=O)(OCC)O/N=C(/C)c1cccc([N+](=O)[O-])c1
inactive: dose: 5.0 mg/kg/injection, schedule: Q01DX001 (ip), vehicle: saline 100 % of control | dose: 10.0 mg/kg/injection, schedule: Q01DX001 (ip), vehicle: saline 97 % of control

COc1ccccc1CN1CCCOP1(=O)Nc1ccccc1C (stereo not given)
inactive: [1] 109 % of control | [2] 93 % of control | [3] 96 % of control | [4] 91 % of control

Cc1ccc2ccccc2n1
inactive: [5] 91 % of control | [6] 93 % of control | [7] 98 % of control

CCOC(=O)CNC(=O)C1OC(n2cnc3c(N)ncnc32)C(O)C1O (stereo not given)
inactive: dose: 6.25 mg/kg/injection, schedule: Q01DX009 (ip), vehicle: saline 105 % of control | dose: 12.5 mg/kg/injection, schedule: Q01DX005 (ip), vehicle: saline 102 % of control | [8] 110 % of control | dose: 25.0 mg/kg/injection, schedule: Q01DX005 (ip), vehicle: saline 114 % of control

O=[N+]([O-])c1cc(Cl)cc(Cl)c1O
inactive: dose: 12.5 mg/kg/injection, schedule: Q01DX009 (ip), vehicle: Klucel (hydroxypropylcellulose) (HPC) 91 % of control | dose: 12.5 mg/kg/injection, schedule: Q04DX002 (ip), vehicle: Klucel (hydroxypropylcellulose) (HPC) 90 % of control | dose: 25.0 mg/kg/injection, schedule: Q01DX009 (ip), vehicle: Klucel (hydroxypropylcellulose) (HPC) 94 % of control | dose: 25.0 mg/kg/injection, schedule: Q04DX002 (ip), vehicle: Klucel (hydroxypropylcellulose) (HPC) 97 % of control | dose: 50.0 mg/kg/injection, schedule: Q04DX002 (ip), vehicle: Klucel (hydroxypropylcellulose) (HPC) 94 % of control

CN(C1=CC(=O)C(N(C)C2CCCCC2)=CC1=O)C1CCCCC1
inactive: dose: 7.5 mg/kg/injection, schedule: Q01DX009 (ip), vehicle: saline 90 % of control | dose: 15.0 mg/kg/injection, schedule: Q01DX009 (ip), vehicle: saline 93 % of control

CCN(CC)CC(=O)NCC(CCCN(C)C)(CCCN(C)C)c1cccc2ccccc12
inactive: [8] 96 % of control | [9] 91 % of control | dose: 25.0 mg/kg/injection, schedule: Q04DX002 (ip), vehicle: saline 93 % of control | [10] 86 % of control | dose: 50.0 mg/kg/injection, schedule: Q04DX002 (ip), vehicle: saline 100 % of control

Brc1c(N=Cc2ccccc2)ccc2ccccc12
inactive: dose: 100.0 mg/kg/injection, schedule: Q01DX009 (ip), vehicle: saline with Tween-80 94 % of control | [11] 102 % of control | dose: 200.0 mg/kg/injection, schedule: Q01DX009 (ip), vehicle: saline with Tween-80 87 % of control | [12] 102 % of control | dose: 400.0 mg/kg/injection, schedule: Q01DX009 (ip), vehicle: saline with Tween-80 89 % of control | [13] 89 % of control

O=Cc1ccc([N+](=O)[O-])cc1Cl
inactive: [14] 111 % of control | dose: 150.0 mg/kg/injection, schedule: Q01DX001 (ip), vehicle: other 94 % of control | dose: 300.0 mg/kg/injection, schedule: Q01DX001 (ip), vehicle: other 97 % of control

O=C(/C=C/CBr)NC(Cc1ccccc1)C(=O)O (stereo not given)
inactive: [14] 104 % of control

CC(Br)C(=O)c1cccc2ccccc12 (stereo not given)
inactive: dose: 25.0 mg/kg/injection, schedule: Q04DX003 (ip), vehicle: Klucel (hydroxypropylcellulose) (HPC) 90 % of control | dose: 50.0 mg/kg/injection, schedule: Q04DX003 (ip), vehicle: Klucel (hydroxypropylcellulose) (HPC) 90 % of control | [15] 97 % of control and 98 % of control

NC(Cc1cc(I)c(O)c(I)c1)C(=O)O (stereo not given)
inactive: dose: 12.5 mg/kg/injection, schedule: Q01DX009 (ip), vehicle: carboxymethylcellulose (CMC) 101 % of control | dose: 25.0 mg/kg/injection, schedule: Q01DX009 (ip), vehicle: carboxymethylcellulose (CMC) 99 % of control | [9] 92 % of control | dose: 25.0 mg/kg/injection, schedule: Q04DX003 (ip), vehicle: carboxymethylcellulose (CMC) 101 % of control | dose: 50.0 mg/kg/injection, schedule: Q01DX009 (ip), vehicle: carboxymethylcellulose (CMC) 90 % of control | [10] 112 % of control | dose: 50.0 mg/kg/injection, schedule: Q04DX003 (ip), vehicle: carboxymethylcellulose (CMC) 100 % of control | [16] 99 % of control | dose: 100.0 mg/kg/injection, schedule: Q01DX009 (ip), vehicle: saline 108 % of control | [17] 96 % of control | [18] 91 % of control | dose: 200.0 mg/kg/injection, schedule: Q01DX009 (ip), vehicle: saline 108 % of control | [19] 92 % of control | dose: 400.0 mg/kg/injection, schedule: Q01DX009 (ip), vehicle: saline 95 % of control | [20] 100 % of control

BrC1C=CC=CN1C/C=C/CN1C=CC=CC1Br (stereo not given)
inactive: dose: 75.0 mg/kg/injection, schedule: Q01DX001 (ip), vehicle: saline 96 % of control | dose: 150.0 mg/kg/injection, schedule: Q01DX001 (ip), vehicle: saline 97 % of control

O=CC(O)C(O)C(OC1OC(CO)C(OC2OC(CO)C(O)C(O)C2O)C(O)C1O)C(O)CO (stereo not given)
inactive: [5] 93 % of control | [6] 93 % of control | [7] 94 % of control

CC1(CBr)Oc2ccccc2O1
inactive: [21] 115 % of control | [22] 97 % of control | dose: 400.0 mg/kg/injection, schedule: Q01DX009 (ip), vehicle: Klucel (hydroxypropylcellulose) (HPC) 101 % of control

Nc1nc(CCl)nc(Nc2ccccc2)n1
inactive: [21] 105 % of control | [15] 104 % of control | [22] 86 % of control | dose: 200.0 mg/kg/injection, schedule: Q04DX003 (ip), vehicle: Klucel (hydroxypropylcellulose) (HPC) 98 % of control

CN(N)C(=O)Nc1ccc(Br)cc1
inactive: dose: 75.0 mg/kg/injection, schedule: Q01DX001 (ip), vehicle: carboxymethylcellulose (CMC) 104 % of control | dose: 150.0 mg/kg/injection, schedule: Q01DX001 (ip), vehicle: carboxymethylcellulose (CMC) 100 % of control | dose: 300.0 mg/kg/injection, schedule: Q01DX001 (ip), vehicle: carboxymethylcellulose (CMC) 98 % of control

Cc1cccc(Cl)[n+]1[O-]
inactive: [5] 97 % of control | [6] 97 % of control | [7] 86 % of control

CCCCCCCCC(=O)N(CC(C)C)CC(C)C
inactive: [2] 93 % of control | [16] 101 % of control | dose: 100.0 mg/kg/injection, schedule: Q04DX002 (ip), vehicle: carboxymethylcellulose (CMC) 94 % of control | [17] 101 % of control | [3] 91 % of control | [18] 101 % of control and 106 % of control | dose: 200.0 mg/kg/injection, schedule: Q04DX002 (ip), vehicle: carboxymethylcellulose (CMC) 102 % of control | [19] 101 % of control | [4] 93 % of control | dose: 400.0 mg/kg/injection, schedule: Q04DX002 (ip), vehicle: carboxymethylcellulose (CMC) 97 % of control | [20] 104 % of control

Cc1ccc2c(c1)C(=O)CCC2
inactive: dose: 177.0 mg/kg/injection, schedule: Q01DX001 (ip), vehicle: saline 94 % of control | dose: 200.0 mg/kg/injection, schedule: Q01DX001 (ip), vehicle: saline 95 % of control | dose: 266.0 mg/kg/injection, schedule: Q01DX001 (ip), vehicle: saline 94 % of control | dose: 400.0 mg/kg/injection, schedule: Q01DX001 (ip), vehicle: saline 94 % of control and 95 % of control | dose: 600.0 mg/kg/injection, schedule: Q01DX001 (ip), vehicle: saline 96 % of control

N#CC(C#N)=C1c2ccccc2C(=O)c2ccccc21
inactive: [1] 104 % of control | [2] 104 % of control | [11] 97 % of control | [3] 104 % of control | [12] 98 % of control | [4] 106 % of control | [13] 87 % of control

C(CC1CCNCC1)CC1CCNCC1 (tested in a mixture with another compound)
inactive: dose: 100.0 mg/kg/injection, schedule: Q01DX001 (ip), vehicle: saline 94 % of control
